Results: article PMC6044684 (ACS Omega, 2016)

Molecular target: epidermal growth factor receptor (EGFR) (Homo sapiens, UniProt P00533)
Assay: SPR
Format: binding

epidermal growth factor receptor (EGFR), sequence (P00533 25-1210): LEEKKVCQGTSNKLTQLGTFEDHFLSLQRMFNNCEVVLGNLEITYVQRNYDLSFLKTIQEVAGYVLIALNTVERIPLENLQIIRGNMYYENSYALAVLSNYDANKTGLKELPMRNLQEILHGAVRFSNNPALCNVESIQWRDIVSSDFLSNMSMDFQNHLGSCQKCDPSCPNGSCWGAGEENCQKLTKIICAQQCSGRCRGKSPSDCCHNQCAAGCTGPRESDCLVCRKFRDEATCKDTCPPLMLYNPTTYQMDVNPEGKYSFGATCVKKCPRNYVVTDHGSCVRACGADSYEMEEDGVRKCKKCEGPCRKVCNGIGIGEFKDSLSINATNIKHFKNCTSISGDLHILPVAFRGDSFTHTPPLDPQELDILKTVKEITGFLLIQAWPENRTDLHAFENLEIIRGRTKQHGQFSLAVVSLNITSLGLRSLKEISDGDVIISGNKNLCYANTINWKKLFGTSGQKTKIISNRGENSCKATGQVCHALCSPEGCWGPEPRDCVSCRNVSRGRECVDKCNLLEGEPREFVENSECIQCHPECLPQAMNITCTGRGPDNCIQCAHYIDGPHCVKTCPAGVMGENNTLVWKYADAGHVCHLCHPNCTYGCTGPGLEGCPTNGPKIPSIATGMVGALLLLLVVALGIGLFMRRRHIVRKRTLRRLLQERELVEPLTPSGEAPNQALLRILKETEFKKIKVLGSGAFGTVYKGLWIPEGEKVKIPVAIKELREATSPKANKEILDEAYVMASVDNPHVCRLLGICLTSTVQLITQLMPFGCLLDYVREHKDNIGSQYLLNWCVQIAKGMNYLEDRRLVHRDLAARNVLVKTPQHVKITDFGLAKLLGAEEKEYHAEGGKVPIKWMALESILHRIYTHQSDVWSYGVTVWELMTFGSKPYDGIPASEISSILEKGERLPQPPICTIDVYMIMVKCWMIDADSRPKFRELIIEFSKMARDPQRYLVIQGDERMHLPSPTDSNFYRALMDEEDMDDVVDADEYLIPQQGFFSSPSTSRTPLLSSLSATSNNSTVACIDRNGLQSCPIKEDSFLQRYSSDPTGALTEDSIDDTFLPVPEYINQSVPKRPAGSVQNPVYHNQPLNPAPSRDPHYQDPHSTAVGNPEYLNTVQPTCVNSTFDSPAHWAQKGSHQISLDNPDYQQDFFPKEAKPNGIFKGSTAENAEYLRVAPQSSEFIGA

Kd: 11.8 ± 2.4 µM
Compound: Clc1ccc(C2=NN(c3nc(C45CC6CC(CC(C6)C4)C5)cs3)C(c3ccccc3)C2)c(Cl)c1 (stereo not shown) [3e, 4-(adamantan-1-yl)-2-(3-(2,4-dichlorophenyl)-5-phenyl-4,5-dihydro-1H-pyrazol-1-yl)thiazole]
